# Counter-ions that a name gives are not always drawn.
# Target: T1, human FOXO1 (constitutively active form Thr24Ala, Ser256Ala, Ser319Ala) (Homo sapiens, UniProt Q12778, S256A/S319A/T24A)
# T1 construct: expressed in transfected cells; host or cells: HEK293 cells transfected with pcDNA3.1 plasmid
# Assay: FOXO1 inhibitor activity assay: cell-based transcriptional (luciferase) reporter assay in HEK293 cells
# Conditions: HEK293 cells transfected with insulin response element firefly luciferase reporter, FOXO1 and Renilla luciferase; 10-point dose response 50 μM to 2.5 nM; 24 hours
# In short: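 IC50 and maximal inhibition were fitted by 4-parameter logistic regression on normalized firefly/Renilla luciferase ratios. The 0% reference used RFP in place of FOXO1, and the 100% reference was DMSO-only with all plasmids.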
# T1 sequence (Q12778 whole entry T24A/S256A/S319A): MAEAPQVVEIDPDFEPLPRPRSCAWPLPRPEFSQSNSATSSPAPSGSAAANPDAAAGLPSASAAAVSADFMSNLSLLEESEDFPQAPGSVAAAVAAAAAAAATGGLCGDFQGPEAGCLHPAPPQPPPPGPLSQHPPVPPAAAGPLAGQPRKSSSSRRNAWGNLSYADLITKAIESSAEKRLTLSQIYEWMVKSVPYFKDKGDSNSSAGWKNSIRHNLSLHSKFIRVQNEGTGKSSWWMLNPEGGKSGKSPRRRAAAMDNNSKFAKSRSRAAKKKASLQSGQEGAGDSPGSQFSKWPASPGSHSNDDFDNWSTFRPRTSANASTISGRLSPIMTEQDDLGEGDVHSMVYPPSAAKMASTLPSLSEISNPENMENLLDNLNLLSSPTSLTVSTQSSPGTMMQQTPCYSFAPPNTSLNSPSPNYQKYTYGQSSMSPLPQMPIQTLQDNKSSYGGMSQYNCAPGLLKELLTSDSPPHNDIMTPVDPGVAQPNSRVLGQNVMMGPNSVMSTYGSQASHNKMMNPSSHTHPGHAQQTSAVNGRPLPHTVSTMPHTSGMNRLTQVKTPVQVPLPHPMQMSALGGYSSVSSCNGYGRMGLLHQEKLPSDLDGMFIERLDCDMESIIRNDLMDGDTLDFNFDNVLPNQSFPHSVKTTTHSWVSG
row,SMILES,IC50 [nM]
1,"COCCn1nc(NC(=O)c2ccc(N3CCN(C)CC3)nc2)cc1-c1nc2ccccc2[nH]1 [Compound A-182, N-[5-(1H-benzimidazol-2-yl)-1-(2-methoxyethyl)pyrazol-3-yl]-6-(4-methyl-piperazin-1-yl)pyridine-3-carboxamide]",300 to 1000
2,"COC1CN(c2ncc(C(=O)Nc3cc(-c4nc5ccccc5[nH]4)[nH]n3)cn2)C1 [Compound A-183, N-[5-(1H-benzimidazol-2-yl)-1H-pyrazol-3-yl]-2-(3-methoxyazetidin-1-yl)pyrimidine-5-carboxamide]",> 1000
3,"COc1cc(F)c2[nH]c(-c3cc(NC(=O)c4ccc(N5CC(OC)C5)nc4)nn3C)nc2c1 [Compound A-187, N-[5-(7-fluoro-5-methoxy-1H-benzimidazol-2-yl)-1-methyl-pyrazol-3-yl]-6-(3-methoxyazetidin-1-yl)pyridine-3-carboxamide]",300 to 1000
4,"COc1cc(F)c2[nH]c(-c3cc(NC(=O)c4ccc(N5CC(OC)C5)nc4)n[nH]3)nc2c1 [Compound A-188, N-[5-(7-fluoro-5-methoxy-1H-benzimidazol-2-yl)-1H-pyrazol-3-yl]-6-(3-methoxyazetidin-1-yl)pyridine-3-carboxamide]",> 1000
5,"COc1cc(F)c2[nH]c(-c3cc(NC(=O)c4ccc(N5CCC(OC)CC5)nc4)nn3C)nc2c1 [Compound A-189, N-[5-(7-fluoro-5-methoxy-1H-benzimidazol-2-yl)-1-methyl-pyrazol-3-yl]-6-(4-methoxy-1-piperidyl)pyridine-3-carboxamide]",< 100
6,"COCCN1CCN(c2ccc(C(=O)Nc3cc(-c4nc5cc(OC)cc(F)c5[nH]4)[nH]n3)cn2)CC1 [Compound A-192, N-[5-(7-fluoro-5-methoxy-1H-benzimidazol-2-yl)-1H-pyrazol-3-yl]-6-[4-(2-methoxyethyl)piperazin-1-yl]pyridine-3-carboxamide]",> 1000
7,"COc1ccc(C(=O)Nc2cc(-c3nc4ccccc4[nH]3)n(CCO)n2)cc1Cl [Compound A-195, N-[5-(1H-benzimidazol-2-yl)-1-(2-hydroxyethyl)pyrazol-3-yl]-3-chloro-4-methoxy-benzamide]",100 to 300
8,"COCCN1CCN(c2ccc(C(=O)Nc3cc(-c4nc5ccccc5[nH]4)n(CCO)n3)cn2)CC1 [Compound A-198, N-[5-(1H-benzimidazol-2-yl)-1-(2-hydroxyethyl)pyrazol-3-yl]-6-[4-(2-methoxyethyl)piperazin-1-yl]pyridine-3-carboxamide]",300 to 1000
9,"Cn1nc(NC(=O)c2ccc(OCCO)c(Cl)c2)cc1-c1nc2ccccc2[nH]1 [Compound A-202, N-[5-(1H-benzimidazol-2-yl)-1-methyl-pyrazol-3-yl]-3-chloro-4-(2-hydroxyethoxy)benzamide]",< 100
10,"Cn1nc(NC(=O)c2ccc(N3CCN(CCO)CC3)nc2)cc1-c1nc2ccccc2[nH]1 [Compound A-204, N-[5-(1H-benzimidazol-2-yl)-1-methyl-pyrazol-3-yl]-6-[4-(2-hydroxy-ethyl)piperazin-1-yl]pyridine-3-carboxamide]",100 to 300
11,"Cn1nc(NC(=O)c2cnc(N3CCC(N4CCOCC4)CC3)cn2)cc1-c1nc2ccccc2[nH]1 [Compound A-205, N-[5-(1H-benzimidazol-2-yl)-1-methyl-pyrazol-3-yl]-5-(4-morpholino-1-piperidyl)pyrazine-2-carboxamide]",300 to 1000
12,"COc1cc(F)c2[nH]c(-c3cc(NC(=O)c4ccc(N5CCN(CCO)CC5)nc4)nn3C)nc2c1 [Compound A-211, N-[5-(7-fluoro-5-methoxy-1H-benzimidazol-2-yl)-1-methyl-pyrazol-3-yl]-6-[4-(2-hydroxyethyl)piperazin-1-yl]pyridine-3-carboxamide]",100 to 300
13,"CN1CCN(c2ccc(C(=O)Nc3cc(-c4nc5ccccc5[nH]4)n(C)n3)cc2)CC1 [Compound A-212, N-[5-(1H-benzimidazol-2-yl)-1-methyl-pyrazol-3-yl]-4-(4-methyl-piperazin-1-yl)benzamide]",< 100
14,"COc1cc(F)c2[nH]c(-c3cc(NC(=O)c4ccc(N5CCN(C6COC6)CC5)nc4)nn3C)nc2c1 [Compound A-214, N-[5-(7-fluoro-5-methoxy-1H-benzimidazol-2-yl)-1-methyl-pyrazol-3-yl]-6-[4-(oxetan-3-yl)piperazin-1-yl]pyridine-3-carboxamide]",< 100

# Results, then the molecule that gave them:
row,IC50 [nM],SMILES
1,< 100,O=C(Nc1cc(-c2nc3ccccc3[nH]2)[nH]n1)c1ccc(N2CCN(CCO)CC2)cc1 [Compound A-181]
2,> 1000,"CN1CCN(c2ccc(C(=O)Nc3cc(-c4nc5ccccc5[nH]4)[nH]n3)nc2)CC1 [Compound A-184, N-[5-(1H-benzimidazol-2-yl)-1H-pyrazol-3-yl]-5-(4-methylpiperazin-1-yl)pyridine-2-carboxamide]"
3,> 1000,"COCCn1nc(NC(=O)c2ccc(N3CCN(C)CC3)cc2)cc1-c1nc2ccccc2[nH]1 [Compound A-185, N-[5-(1H-benzimidazol-2-yl)-1-(2-methoxyethyl)pyrazol-3-yl]-4-(4-methylpiperazin-1-yl)benzamide]"
4,> 1000,"COC1CN(c2cnc(C(=O)Nc3cc(-c4nc5ccccc5[nH]4)[nH]n3)cn2)C1 [Compound A-186, N-[5-(1H-benzimidazol-2-yl)-1H-pyrazol-3-yl]-5-(3-methoxyazetidin-1-yl)pyrazine-2-carboxamide]"
5,< 100,"COCCN1CCN(c2ccc(C(=O)Nc3cc(-c4nc5cc(OC)cc(F)c5[nH]4)n(C)n3)cn2)CC1 [Compound A-190, N-[5-(7-fluoro-5-methoxy-1H-benzimidazol-2-yl)-1-methyl-pyrazol-3-yl]-6-[4-(2-methoxyethyl)piperazin-1-yl]pyridine-3-carboxamide]"
6,100 to 300,"COc1cc(F)c2[nH]c(-c3cc(NC(=O)c4ccc(N5CCN(C)CC5)nc4)nn3C)nc2c1 [Compound A-191, N-[5-(7-fluoro-5-methoxy-1H-benzimidazol-2-yl)-1-methyl-pyrazol-3-yl]-6-(4-methylpiperazin-1-yl)pyridine-3-carboxamide]"
7,> 1000,"COc1cc(F)c2[nH]c(-c3cc(NC(=O)c4ccc(N5CCC(OC)CC5)nc4)n[nH]3)nc2c1 [Compound A-193, N-[5-(7-fluoro-5-methoxy-1H-benzimidazol-2-yl)-1H-pyrazol-3-yl]-6-(4-methoxy-1-piperidyl)pyridine-3-carboxamide]"
8,> 1000,"COC1CN(c2ccc(C(=O)Nc3cc(-c4nc5ccccc5[nH]4)n(CCO)n3)cn2)C1 [Compound A-196, N-[5-(1H-benzimidazol-2-yl)-1-(2-hydroxyethyl)pyrazol-3-yl]-6-(3-methoxyazetidin-1-yl)pyridine-3-carboxamide]"
9,> 1000,"O=C(O)CCN1CCN(c2ccc(C(=O)Nc3cc(-c4nc5ccccc5[nH]4)[nH]n3)cc2)CC1 [Compound A-197, 3-[4-[4-[[5-(1H-benzimidazol-2-yl)-1H-pyrazol-3-yl]carbamoyl]phenyl]-piperazin-1-yl]propanoic acid hydrochloride]"
10,100 to 300,"O=C(O)CN1CCN(c2ccc(C(=O)Nc3cc(-c4nc5ccccc5[nH]4)[nH]n3)cc2)CC1 [Compound A-199, 2-[4-[4-[[5-(1H-benzimidazol-2-yl)-1H-pyrazol-3-yl]carbamoyl]phenyl]-piperazin-1-yl]acetic acid hydrochloride]"
11,300 to 1000,"CN1CCN(c2ccc(C(=O)Nc3cc(-c4nc5ccccc5[nH]4)n(CCO)n3)cn2)CC1 [Compound A-200, N-[5-(1H-benzimidazol-2-yl)-1-(2-hydroxyethyl)pyrazol-3-yl]-6-(4-methyl-piperazin-1-yl)pyridine-3-carboxamide]"
12,300 to 1000,"CN1CCN(c2ccc(C(=O)Nc3cc(-c4nc5ccccc5[nH]4)n(CCO)n3)cc2)CC1 [Compound A-201, N-[5-(1H-benzimidazol-2-yl)-1-(2-hydroxyethyl)pyrazol-3-yl]-4-(4-methylpiperazin-1-yl)benzamide]"
13,100 to 300,"Cn1nc(NC(=O)c2ccc(N3CCN(C4COC4)CC3)nc2)cc1-c1nc2ccccc2[nH]1 [Compound A-203, N-[5-(1H-benzimidazol-2-yl)-1-methyl-pyrazol-3-yl]-6-[4-(oxetan-3-yl)piperazin-1-yl]pyridine-3-carboxamide]"
14,> 1000,"Cn1nc(NC(=O)c2cnc(N3CCC(N4CCOCC4)CC3)nc2)cc1-c1nc2ccccc2[nH]1 [Compound A-206, N-[5-(1H-benzimidazol-2-yl)-1-methyl-pyrazol-3-yl]-2-(4-morpholino-1-piperidyl)pyrimidine-5-carboxamide]"
15,300 to 1000,"Cn1nc(NC(=O)c2ccc(N3CCC(N4CCOCC4)CC3)nn2)cc1-c1nc2ccccc2[nH]1 [Compound A-207, N-[5-(1H-benzimidazol-2-yl)-1-methyl-pyrazol-3-yl]-6-(4-morpholino-1-piperidyl)pyridazine-3-carboxamide]"
16,100 to 300,"Cn1nc(NC(=O)c2ccc(N3CCC(N4CCOCC4)CC3)nc2)cc1-c1nc2ccccc2[nH]1 [Compound A-208, N-[5-(1H-benzimidazol-2-yl)-1-methyl-pyrazol-3-yl]-6-(4-morpholino-1-piperidyl)pyridine-3-carboxamide]"
17,< 100,"CN1CCN(c2ccc(C(=O)Nc3cc(-c4nc5ccccc5[nH]4)n(C)n3)cn2)CC1 [Compound A-209, N-[5-(1H-benzimidazol-2-yl)-1-methyl-pyrazol-3-yl]-6-(4-methyl-piperazin-1-yl)pyridine-3-carboxamide]"
18,< 100,"Cn1nc(NC(=O)c2ccc(N3CCOCC3)nc2)cc1-c1nc2ccccc2[nH]1 [Compound A-210, N-[5-(1H-benzimidazol-2-yl)-1-methyl-pyrazol-3-yl]-6-morpholino-pyridine-3-carboxamide]"
19,100 to 300,"Cn1nc(NC(=O)c2ccc(N3CCN(CCO)CC3)cc2)cc1-c1nc2ccccc2[nH]1 [Compound A-213, N-[5-(1H-benzimidazol-2-yl)-1-methyl-pyrazol-3-yl]-4-[4-(2-hydroxy-ethyl)piperazin-1-yl]benzamide]"
